# Source: patent US8877745B2, “CCR2 receptor antagonists, method for producing the same, and use thereof as medicaments” (Boehringer Ingelheim International GmbH, priority 2010, dated 2014)
# Target: T1, CCR2 (Homo sapiens, UniProt P41597)
# T1 construct: Membranes were prepared from THP-1 cells; endogenous in cells; host or cells: THP-1 (human acute monocytic leukaemia cells), membrane preparation
# Experiment: CCR2 receptor membrane binding assay ([125I]MCP-1, THP-1 cell membranes, SPA beads)
# Conditions: THP-1 membranes, [125I]MCP-1, bound radioactivity determined after 8 h; read-out: hKi
# Description: The above exemplary substances have been tested for binding to CCR2 using a binding assay as outlined herein below:
# THP-1 cells (human acute monocytic leukaemia cells) were cultured under standardized conditions at 37° C. and 5% CO2 in a humidified incubator. THP-1 cells were cultivated in RPMI 1640 medium (Gibco 21875) containing 1% MEM-NEAA (Gibso 11140) 2 mM L-glutamine, 1.5 g/L sodium bicarbonate, 4.5 g/L glucose, 10 mM HEPES and 1.0 mM sodium pyruvate, 90%; 10% fetal calf serum (FCS Gibco 10500-064).
# Membranes were prepared from THP-1 cells. THP-1 cells were centrifuged at 300×g at 4° C. for 10 min. The cell pellet was resuspended in Phosphate Buffer Saline (PBS, including 10 μM Pefabloc and a protease inhibitor mix ‘complete’, Boehringer Mannheim (1 tablet/50 ml)), to a concentration of […]. The membrane preparation was performed by disrupting the cells by nitrogen […] (at 50 bar, for 1 h) in a “Nitrogen Bombe” (Parr Instrument). Cell debris was removed by centrifugation (800×g at 4° C., 1 min). The supernatant was centrifuged at 80000×g, 4° C. for 30 min to sediment the cell membranes. Usually 50 mg of protein (Bradford assay) were yielded from 1×10E9 cells. The membranes were resuspended in 25 mM HEPES, 25 mM MgCl2, 1 mM CaCl2, 10% Glycerine for storage in aliquots at −80° C. in 25 mM HEPES, 25 mM MgCl2, 1 mM CaCl2, 10% Glycerine and stored at −80° C.
# Receptor Membrane Binding Assay:
# Perkin Elmer NEX 332 Jod 125 MCP-1, Stock: 2200 Ci/mmol solved in […] assay buffer, stored at −20° C. THP-1 membrane were adjusted with 25 mM HEPES, pH 7.2; 5 mM MgCl2; 0.5 mM CaCl2; 0.2% BSA assay buffer to a concentration of 2.5 μg/15 μl. Amersham Biosciences PVT-WGA Beads (RPNQ0001) were adjusted with assay buffer to a concentration of 0.24 mg/30 μl. For preparation of the membrane-bead-suspension membranes and beads were incubated for 30 min at RT under rotation (60 rpm) with a ratio of 1:2. Test compounds dissolved in 100% DMSO to a concentration of 10 mM and are further diluted with 100% DMSO to 1 mM. All additional compound dilutions were obtained with assay buffer, final 1% DMSO. Compounds, membrane-bead-suspension and [^125I]MCP-1 (ca. 25000 cpm/10 μl) were incubated. Bound radioactivity was determined by scintillation counter after 8 h. Determination of affinity of test compounds (dissociation constant hKi) is calculated by iterative fitting of experimental data using the “easy sys” program, which is based on law of mass action (Schittkowski K. (1994), Numerische Mathematik, Vol. 68, 129-142).
# T1 sequence (P41597 whole entry): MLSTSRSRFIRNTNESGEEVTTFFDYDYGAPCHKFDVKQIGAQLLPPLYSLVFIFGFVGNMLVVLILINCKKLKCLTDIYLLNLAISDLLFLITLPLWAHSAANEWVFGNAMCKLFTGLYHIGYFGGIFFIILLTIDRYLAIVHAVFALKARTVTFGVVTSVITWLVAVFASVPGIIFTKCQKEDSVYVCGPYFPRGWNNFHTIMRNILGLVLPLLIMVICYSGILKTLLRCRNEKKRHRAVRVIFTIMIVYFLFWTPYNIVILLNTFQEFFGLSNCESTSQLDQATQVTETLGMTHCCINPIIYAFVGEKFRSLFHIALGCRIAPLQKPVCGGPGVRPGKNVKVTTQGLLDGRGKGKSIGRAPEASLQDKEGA
row,Structure (SMILES),Ki [µM]
1,Cc1c(C(=O)N2CCC(N3CCC(N(C)S(C)(=O)=O)CC3)CC2)ncnc1N1CCC(c2cccc(F)c2)CC1 [Example 22],3.79
2,Cc1c(C(=O)N2CCC(N3CCC(N(C)S(C)(=O)=O)CC3)CC2)ncnc1N1CCC(c2cccc(C(F)(F)F)c2)CC1 [Example 20],0.48
3,Cc1c(C(=O)N2CCC(N3CCC(N(C)S(C)(=O)=O)CC3)CC2)ncnc1N1CCC(c2ccccc2)CC1 [Example 28],3.68
4,COC1COCCC1NC1CCN(C(=O)c2ncnc(N3CCCc4ccccc4C3)c2C)CC1 (centres unmarked) [Example 58],4.24
5,Cc1ccc(C2CCN(c3ncnc(C(=O)N4CCC(N5CCC(N(C)S(C)(=O)=O)CC5)CC4)c3C)CC2)cc1 [Example 24],1.3
6,COC1COCCC1NC1CCN(C(=O)c2ncnc(N3CCOC(c4ccc(Cl)cc4)C3)c2C)CC1 (centres unmarked) [Example 4],1.09
7,CO[C@H]1COCC[C@H]1NC1CCN(C(=O)c2ncnc(N3CCc4ccc(C(F)(F)F)cc4C3)c2C)CC1 [Example 64],0.013
8,COc1c(C(=O)N2CCC(N3CCC(N(C)S(C)(=O)=O)CC3)CC2)ncnc1N1CCc2ccc(OC(F)(F)F)cc2C1 [Example 69],0.062
9,COC1COCCC1NC1CCN(C(=O)c2ncnc(N3CCc4c(Cl)cccc4C3)c2C)CC1 (centres unmarked) [Example 38],0.168
10,CO[C@H]1COCC[C@H]1N(C)C1CCN(C(=O)c2ncnc(N3CCc4ccc(C(F)(F)F)cc4C3)c2C)CC1 [Example 84],0.041
11,COC1COCCC1NC1CCN(C(=O)c2ncnc(N3CCOC(c4ccccc4)C3)c2C)CC1 (centres unmarked) [Example 5],4.17
12,Cc1c(C(=O)N2CCC(N3CCC(NS(C)(=O)=O)CC3)CC2)ncnc1N1CCc2ccc(C(F)(F)F)cc2C1 [Example 37],0.018
13,CCN(CC)C1CCN(C(=O)c2ncnc(N3CCc4ccc(C(F)(F)F)cc4C3)c2C)CC1 [Example 74],0.552
14,Cc1c(C(=O)N2CCC(N3CCC(N(C)S(C)(=O)=O)CC3)CC2)ncnc1N1CCOC(c2ccc(Cl)cc2)C1 (centres unmarked) [Example 3],3.69
15,Cc1c(C(=O)N2CCC(N(C)C)CC2)ncnc1N1CCc2ccc(C(F)(F)F)cc2C1 [Example 79],0.925
16,COC1COCCC1NC1CCN(C(=O)c2ncnc(N3CCc4ccc(OC(F)(F)F)cc4C3)c2C)CC1 (centres unmarked) [Example 8],0.011

# Further lines, results first:
row,Ki [µM],Structure (SMILES)
1,1.3,Cc1c(C(=O)N2CCC(N3CCC(N(C)S(C)(=O)=O)CC3)CC2)ncnc1-n1ccc2cc(C(F)(F)F)ccc21 [Example 69g]
2,0.029,Cc1c(C(=O)N2CCC(NC3CCOCC3F)CC2)ncnc1N1CCc2ccc(C(F)(F)F)cc2C1 (centres unmarked) [Example 69k]
3,0.128,COC1COCCC1NC1CCN(C(=O)c2ncnc(N3CCN(c4ccc(Cl)c(Cl)c4)CC3)c2C)CC1 (centres unmarked) [Example 62al]
4,0.305,COC1COCCC1NC1CCN(C(=O)c2ncnc(N3CCCN(c4ccccc4C)CC3)c2C)CC1 (centres unmarked) [Example 62d]
5,0.096,Cc1c(C(=O)N2CCC(N[C@H]3CCOC[C@H]3F)CC2)ncnc1N1CCc2ccc(Br)cc2C1 [Example 69ac]
6,0.351,COC1COCCC1NC1CCN(C(=O)c2ncnc(N3CC4CC4(c4cc(C(F)(F)F)cc(C(F)(F)F)c4)C3)c2C)CC1 (centres unmarked) [Example 62c]
7,0.257,COC1COCCC1NC1CCN(C(=O)c2ncnc(N3CCN(c4cccc(C)c4)CC3)c2C)CC1 (centres unmarked) [Example 62af]
8,0.009,COc1c(C(=O)N2CCC(N[C@H]3CCOC[C@H]3OC)CC2)ncnc1N1CCc2ccc(C(F)(F)F)cc2C1 [Example 69b]
9,0.034,COC1COCCC1NC1CCN(C(=O)c2ncnc(N3CCN(c4c(C)cccc4C)CC3)c2C)CC1 (centres unmarked) [Example 62ai]
10,0.114,COC1COCCC1NC1CCN(C(=O)c2ncnc(N3CCN(c4ccc(F)c(Cl)c4)CC3)c2C)CC1 (centres unmarked) [Example 62u]
11,9.56,COC1COCCC1NC1CCN(C(=O)c2ncnc(N3CCCC4(CCCCC4)C3)c2C)CC1 (centres unmarked) [Example 62f]
12,0.78,COC1COCCC1NC1CCN(C(=O)c2ncnc(N3CCN(c4ccc5c(c4)OCO5)CC3)c2C)CC1 (centres unmarked) [Example 62q]
13,1.38,COC1COCCC1NC1CCN(C(=O)c2ncnc(N3Cc4ccccc4C4(CC4)C3)c2C)CC1 (centres unmarked) [Example 62l]
